Several values for one entry are separate records, joined by “and”; a condition that tells them apart may be missing. Equal values may be shown once. Read-outs that look alike come from different tables or passages of the source.
Columns and labels:
[1] = tested on: T. b. brucei 427 bloodstream forms; test: Resazurin-based T. b. brucei assay; format: cell-based; conditions: Trypanosoma brucei, 72 h, read-out: EC50 T. brucei
Description: Parasites strains adapted to culture in vitro were used. T. b. brucei Lister 427 bloodstream form parasites (information about the identity and genealogy of this strain is available at The Rockefeller University website) were grown in HMI-9 medium supplemented with 10% heat-inactivated fetal bovine serum (iFBS).
Cells in logarithmic phase of growth were added using a Multidrop dispenser (45 μL, 500 bloodstream T. b. brucei parasites per well) to 384-well Corning assay plates already containing 5 μL of each compound and controls, and incubated for 72 hours at 37°C. 10 μL of resazurin were added per well, and the plates were further incubated for 6 hours at 37°C. The final fluorescence was determined at 550–590 nm. Pentamidine at 40 nM and 0.0067% DMSO were used as […] growth controls, respectively.

T. cruzi epimastigotes = test: Microscopy analysis of T. cruzi epimastigotes (DAPI cell cycle, DIC morphology); format: cell-based, Trypanosoma cruzi; conditions: for % Cells 0N1K, Average / % Cells 1N1K1F, Average / % Cells 1N*1K*1F, Average / % Cells 1N*2K2F, Average / % Cells 2N1K, Average / % Cells 2N2K2F, Average / % Cells Other, Average / % Cells 0N1K, individual replicates / % Cells 1N1K1F, individual replicates / % Cells 1N*1K*1F, individual replicates / % Cells 1N*2K2F, individual replicates / % Cells 2N1K, individual replicates / % Cells 2N2K2F, individual replicates / % Cells Other, individual replicates: 72-hour drug exposure, DAPI staining
Description: For morphological phenotypic analysis and further confirmation of cell cycle analysis by FACS, T. cruzi epimastigotes were grown for 72 hours in a 6-well plate in the presence and absence of drugs. Briefly, 1 × 10^6 parasites of each condition were harvested and fixed in 4% p-formaldehyde at 4°C for 20 minutes, washed twice with cold PBS, and placed on poly-L-lysine-coated slides. Followed by dehydration in methanol, parasite samples were stained and mounted with DAPI Prolong. Digital images were acquired with a Leica DMi8 microscope in Tile Scan mode with […] excitation to quantify DAPI stained nuclei and kinetoplasts of the parasite population. Transmitted light microscopy was used to acquire differential interference contrast (DIC) images (> 80 individual cells in each of two independent experiments).

[2] = tested on: human macrophage THP-1 cells; test: Cytotoxicity in THP-1 macrophages (MTT); format: cell-based
Description: Cellular toxicity of compounds in the human macrophage host TPH-1 cell line was determined using the colorimetric MTT-based assay as previously described.
THP-1 cells were seeded at 3 × 10^4 cells/well in 96-well plates and were differentiated to macrophages with 20 ng/ml of PMA treatment for 48 h followed by 24 h incubation in fresh medium. Strasseriolides were added at increasing concentrations up to 50 μM and cells were further incubated at 37°C for 72 h. 10 μL of MTT (5 mg/mL in PBS) were added to each well, and plates were incubated for an additional period of 8 h at 37°C. Formazan crystals were dissolved by adding 50 μL of 20% SDS and absorbance was read at 595 nm using a microplate reader.

[3] = tested on: transgenic Trypanosoma cruzi Brazil strain expressing firefly luciferase; test: In vivo efficacy, acute T. cruzi infection in BALB/c mice (luciferase imaging)
Description: In vivo experiments were performed at the Anti-infectives Screening Core Services facility of the New York University School of Medicine. The transgenic Trypanosoma cruzi Brazil strain expressing firefly luciferase was used. Groups of five female BALB/c mice were infected with 2 × 10^6 T. cruzi trypomastigotes. […] Quantification is based on luciferase activity of the parasites after i.p. injection of 150 mg/Kg D-luciferin potassium-salt in PBS. Luminescence is measured on the fifth day using an IVIS Lumina II imager.

Plasmodium berghei = tested on: Plasmodium berghei; set-up: method as in PMID 34865639; conditions: Plasmodium berghei murine model; cited from earlier work
[4] = set-up: method as in PMID 34865639; conditions: cited from earlier work
[5] = tested on: intracellular T. cruzi amastigotes; test: Rate of kill, intracellular T. cruzi amastigotes (CPRG, 96-well); format: cell-based, Trypanosoma cruzi; conditions: for EC90/EC50 / Hill slope / EC50: Amastigotes; for Growth inhibition (%), individual replicates / inhibition at 50 µM: T. cruzi amastigotes, 50 µM; for inhibition at 50 µM / EC50: Trypanosoma cruzi
Description: For rate of kill experiments, in vitro activity against intracellular T. cruzi amastigotes was analyzed at early time points: 24, 48 and 72 hours. The standard colorimetric transgenic assay was established in a 96-well format, with serial dilutions of compounds and 0.05% as the final maximal DMSO percentage per well. In these experiments L6 host cells were included as negative controls and CPRG conversion was monitored at 585 nm using a Versamax microplate reader (Molecular devices).

**Q.** For `C/C1=C\[C@H](C)C(=O)C[C@@H](O)/C(C)=C/[C@H](C)C[C@@H](C)CC[C@@H]([C@@H](C)C(=O)O)OC(=O)[C@@H](C)C1` [Strasseriolide C, strasseriolide C], which EC50 [1] is on record?
**A.** 59.6 µM

**Q.** What about the “% Cells 0N1K, Average” value (T. cruzi epimastigotes; EC30, average) of the same compound?
**A.** 0.9709%

**Q.** And the “% Cells 1N1K1F, Average” value (T. cruzi epimastigotes; EC30, average)?
**A.** 66.0194%

**Q.** What about the “% Cells 1N*1K*1F, Average” value (T. cruzi epimastigotes; EC30, average) of the same compound?
**A.** 4.854%

**Q.** And the “% Cells 1N*2K2F, Average” value (T. cruzi epimastigotes; EC30, average)?
**A.** 2.913%

**Q.** And the “% Cells 2N1K, Average” value (T. cruzi epimastigotes; EC30, average)?
**A.** 4.854%

**Q.** What about the “% Cells 2N2K2F, Average” value (T. cruzi epimastigotes; EC30, average) of the same compound?
**A.** 19.4175%

**Q.** And the “% Cells Other, Average” value (T. cruzi epimastigotes; EC30, average)?
**A.** 0.9709%

**Q.** And the “% Cells 0N1K, individual replicates” value (T. cruzi epimastigotes; EC30, single replicates)?
**A.** 0.9709%

**Q.** What about the “% Cells 1N1K1F, individual replicates” value (T. cruzi epimastigotes; EC30, single replicates) of the same compound?
**A.** 70.8738% and 61.165%

**Q.** And the “% Cells 1N*1K*1F, individual replicates” value (T. cruzi epimastigotes; EC30, single replicates)?
**A.** 4.854%

**Q.** What about the “% Cells 1N*2K2F, individual replicates” value (T. cruzi epimastigotes; EC30, single replicates) of the same compound?
**A.** 2.913%

**Q.** And the “% Cells 2N1K, individual replicates” value (T. cruzi epimastigotes; EC30, single replicates)?
**A.** 6.796% and 2.913%

**Q.** And the “% Cells 2N2K2F, individual replicates” value (T. cruzi epimastigotes; EC30, single replicates)?
**A.** 13.5922% and 25.2427%

**Q.** And the “% Cells Other, individual replicates” value (T. cruzi epimastigotes; EC30, single replicates)?
**A.** 0% and 1.942%

**Q.** What about the “% Cells 0N1K, Average” value (T. cruzi epimastigotes; EC70, average) of the same compound?
**A.** 3.4269%

**Q.** And the “% Cells 1N1K1F, Average” value (T. cruzi epimastigotes; EC70, average)?
**A.** 57.8968%

**Q.** What about the “% Cells 1N*1K*1F, Average” value (T. cruzi epimastigotes; EC70, average) of the same compound?
**A.** 5.388%

**Q.** And the “% Cells 1N*2K2F, Average” value (T. cruzi epimastigotes; EC70, average)?
**A.** 3.4269%

**Q.** And the “% Cells 2N1K, Average” value (T. cruzi epimastigotes; EC70, average)?
**A.** 2.951%

**Q.** What about the “% Cells 2N2K2F, Average” value (T. cruzi epimastigotes; EC70, average) of the same compound?
**A.** 24.9207%

**Q.** And the “% Cells Other, Average” value (T. cruzi epimastigotes; EC70, average)?
**A.** 2.961%

**Q.** What about the “% Cells 0N1K, individual replicates” value (T. cruzi epimastigotes; EC70, single replicates) of the same compound?
**A.** 2.9703% and 3.8835%

**Q.** What about the “% Cells 1N1K1F, individual replicates” value (T. cruzi epimastigotes; EC70, single replicates) of the same compound?
**A.** 63.3663% and 52.4272%

**Q.** And the “% Cells 1N*1K*1F, individual replicates” value (T. cruzi epimastigotes; EC70, single replicates)?
**A.** 4.9505% and 5.825%

**Q.** And the “% Cells 1N*2K2F, individual replicates” value (T. cruzi epimastigotes; EC70, single replicates)?
**A.** 2.9703% and 3.8835%

**Q.** What about the “% Cells 2N1K, individual replicates” value (T. cruzi epimastigotes; EC70, single replicates) of the same compound?
**A.** 3.9604% and 1.942%

**Q.** And the “% Cells 2N2K2F, individual replicates” value (T. cruzi epimastigotes; EC70, single replicates)?
**A.** 16.8317% and 33.0097%

**Q.** And the “% Cells Other, individual replicates” value (T. cruzi epimastigotes; EC70, single replicates)?
**A.** 4.9505% and 0.9709%

**Q.** What about the “morphological changes (DIC microscopy)” value (T. cruzi epimastigotes; 72 h, at EC70) of the same compound?
**A.** smaller and rounded parasites

**Q.** What about the “Selectivity index intracellular L. donovani versus THP-1 cells” value [2] of the same compound?
**A.** 68

**Q.** And the EC50 ([2]; Homo sapiens, THP-1, 72 h, MTT, read-out: EC50 THP-1)?
**A.** 448 µM

**Q.** And the “Total counts, individual mouse” value ([3]; 50 mg/kg i.p. 5 days from 72 h post-infection, 50 mg/kg)?
**A.** 1820000 and 5150000 and 2580000 and 6540000 and 3640000

**Q.** What about the “Total counts, Average” value ([3]; 50 mg/kg i.p. 5 days from 72 h post-infection, vehicle average 8050000) of the same compound?
**A.** 3940000

**Q.** And the parasitaemia in vivo ([3]; acute infection model, 50 mg/Kg i.p., 5 days)?
**A.** lowers parasitaemia

**Q.** And the “in vivo antiprotozoal activity” value (Plasmodium berghei)?
**A.** exhibit in vivo antiprotozoal activity

**Q.** What about the liver microsome clearance [4] of the same compound?
**A.** medium

**Q.** What about the EC90/EC50 ([5]; 24 h) of the same compound?
**A.** 3.78

**Q.** And the Hill slope ([5]; 24 h)?
**A.** 1.70

**Q.** What about the EC90/EC50 ([5]; 48 h) of the same compound?
**A.** 2.65

**Q.** What about the Hill slope ([5]; 48 h) of the same compound?
**A.** 2.31

**Q.** What about the EC90/EC50 ([5]; 72 h) of the same compound?
**A.** 2.43

**Q.** And the Hill slope ([5]; 72 h)?
**A.** 2.48

**Q.** What about the “Growth inhibition (%), individual replicates” value (from here on “Growth inhibition (%)”) ([5]; 24 h, single replicates) of the same compound?
**A.** 74.7423%

**Q.** And the “Growth inhibition (%)” value ([5]; 48 h, single replicates)?
**A.** 94.7649% and 95.5652%

**Q.** What about the “Growth inhibition (%)” value ([5]; 72 h, single replicates) of the same compound?
**A.** 98.6747% and 99.1566%

**Q.** What about the inhibition at 50 µM ([5]; 24 h, 24 h, average, read-out: Growth inhibition (%), Average) of the same compound?
**A.** 73.4%

**Q.** And the inhibition at 50 µM ([5]; 24 h, 24 h, single replicates, read-out: Growth inhibition (%), individual replicates)?
**A.** 72.7%

**Q.** What about the inhibition at 50 µM ([5]; 48 h, 48 h, average, read-out: Growth inhibition (%), Average) of the same compound?
**A.** 94.9%

**Q.** What about the inhibition at 50 µM ([5]; 48 h, 48 h, single replicates, read-out: Growth inhibition (%), individual replicates) of the same compound?
**A.** 94.2%

**Q.** What about the inhibition at 50 µM ([5]; 72 h, 72 h, average, read-out: Growth inhibition (%), Average) of the same compound?
**A.** 98.8%

**Q.** What about the inhibition at 50 µM ([5]; 72 h, 72 h, single replicates, read-out: Growth inhibition (%), individual replicates) of the same compound?
**A.** 98.6%

**Q.** And the EC50 ([5]; 24 h)?
**A.** 10.3 µM

**Q.** What about the EC50 ([5]; 48 h) of the same compound?
**A.** 5.25 µM

**Q.** What about the EC50 ([5]; 72 h) of the same compound?
**A.** 5.3 µM

Source: paper PMC10529594, “Strasseriolides display in vitro and in vivo activity against trypanosomal parasites and cause morphological and size defects in Trypanosoma cruzi” (PLOS Neglected Tropical Diseases, 2023)
